Source: patent publication US20230295130A1, “COMPOUND USEFUL AS CDK7 KINASE INHIBITOR AND USE THEREOF” (TYK MEDICINES, INC., priority 2020, published 2023)

Tests used:
[1] = target: T1, CDK7/Cyclin H/MAT1 kinase (Homo sapiens (Human), UniProt P50613); experiment: Enzyme activity test, mobility shift assay (Table 1); assay type: biochemical; conditions: 2 mM ATP; pre-incubated 0 and 60 minutes
[2] = tested on: ovarian cancer cells OVCAR3; experiment: Cell anti-proliferation experiment, MTT (Table 2); assay type: cell-based; conditions: Homo sapiens, OVCAR-3, 72 h, incubate 3 days
Description: (§1) Human breast cancer cells MDA-MB 231, MDA-MB453, ovarian cancer cells OVCAR3 and A2780, colorectal cancer cells HCT-116 and WiDr, and lung cancer cell Calu-6 were purchased from BNCC. DMEM medium (Bio-Channel), DMSO (dimethyl sulfoxide), MTT (thiazole blue), 0.25% EDTA-Tripsin (pancreatin digestive juice), 1×PBS (phosphate buffer, PH7.2), 96-well plate (Corning), fetal bovine serum (FBS), 10,000 U/mL penicillin-G/streptomycin, high-speed freezing centrifuge (EPPENDORF 5810R), enzyme-linked immunosorbent assay (Tecan Spark).
(§2) 1. Cell Plating • A) Tumor cells were cultured to 80-90% density in DMEM (high sugar, containing 10% FBS and 100 U/mL penicillin-G/streptomycin) at 37° C., 5% CO2 and saturated humidity. • B) The culture medium was removed from the 10 cm culture dish. • C) Cells were washed with 10 ml 1×PBS. • D) 4 ml of 0.25% EDTA-Tripsin was added to an incubator to digest pancreatin for 5 minutes at 37° C. and 5% CO2, transferred to a 15 ml centrifuge tube, centrifuged for 5 minutes at 200 g, and supernatant was discarded to obtain cell precipitation. • E) The cell precipitation was resuspended with 4 ml DMEM medium, counted and adjusted to 50,000 cells/ml. • F) Cell suspension was added to a 96-well plate with a volume of 100 μL per well and cultured overnight in a 5% CO2 incubator at 37° C.
(§3) Compound Dilution • A) Preparing the tested compound gradient dilution solution: the tested compounds were prepared into 10 mM and 1 mM storage solution respectively. Firstly, 1 μl and 0.5 μl of 10 mM storage solution were dissolved in 1 ml of DMSO-free culture solution, respectively, to obtain diluted compounds with concentrations of 10 and 5 μM. Then, 1.5 μl of 1 mM storage solution was dissolved in 1.5 ml of DMSO-free culture solution to obtain a dilution compound with a concentration of 1 μM, and then diluted with a 3-fold continuous gradient with […] culture solution for a total of 7 concentrations. The concentrations of all 10 diluted compounds mentioned above were as follows: • 10 μM, 5 μM, 1 μM, 333.33 nM, 111.11 nM, 37.03 nM, 12.35 nM, 4.15 nM, 1.37 nM, 0.46 nM • B) After full mixing, 100 μL of culture compound solution was taken to replace the culture solution in the cell culture plate, with 4 duplicated wells at each concentration; • C) The cells were transferred to incubator to incubate for 3 days.
(§4) 3. MTT Detection • A) The cell culture plate was taken out and added with 5 mg/ml MTT 10 μL in the biosafety cabinet; • B) The cell culture plate was put back into the incubator and continued to incubate for 3 hours; • C) The cell culture plate was taken out to remove the culture solution, 100 μL isopropanol (containing 0.4 mM HCl, 0.1% NP-40) was added, shaking at room temperature for 30 minutes; • D) The absorbance value was measured at 570 nm on TECAN enzyme linked immunosorbent assay.

[3] = tested on: ovarian cancer cells A2780; experiment: Cell anti-proliferation experiment, MTT (Table 2); assay type: cell-based, human; conditions: Homo sapiens, A2780, 72 h, incubate 3 days
Description: as §1, §2, §3, §4

CDK2/Cyclin El = CDK2/Cyclin El (Homo sapiens (Human), UniProt P24941); experiment: Enzyme activity test, mobility shift assay (Table 1); assay type: biochemical; conditions: 2 mM ATP; read-out: CDK2 kinase IC50
Outline: (§5)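 Human CDK9/Cyclin T1 and CDK2/Cyclin E1 activity measured by mobility shift assay. Compounds tested as 10-point, 3-fold dilution series starting at 0.5 mM (diluted from 10 mM DMSO stock), in duplicate, with 0 min or 60 min compound–enzyme pre-incubation.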

CDK9/Cyclin Tl = CDK9/Cyclin Tl (Homo sapiens (Human), UniProt P50750); experiment: as above; assay type: biochemical; conditions: 2 mM ATP; read-out: CDK9 kinase IC50
Sequence of CDK9/Cyclin Tl (P50750 whole entry): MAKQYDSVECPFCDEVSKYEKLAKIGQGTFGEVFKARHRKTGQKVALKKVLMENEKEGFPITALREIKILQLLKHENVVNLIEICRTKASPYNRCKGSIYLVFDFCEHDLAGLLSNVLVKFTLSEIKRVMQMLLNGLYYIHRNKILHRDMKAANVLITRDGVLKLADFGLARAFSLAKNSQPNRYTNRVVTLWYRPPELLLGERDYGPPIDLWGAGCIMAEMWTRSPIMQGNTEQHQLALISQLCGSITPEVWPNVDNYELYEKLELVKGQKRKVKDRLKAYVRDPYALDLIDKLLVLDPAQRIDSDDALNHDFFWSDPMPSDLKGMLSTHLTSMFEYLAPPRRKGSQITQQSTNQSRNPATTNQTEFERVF
Sequence of CDK9/Cyclin Tl (O60563 whole entry partner): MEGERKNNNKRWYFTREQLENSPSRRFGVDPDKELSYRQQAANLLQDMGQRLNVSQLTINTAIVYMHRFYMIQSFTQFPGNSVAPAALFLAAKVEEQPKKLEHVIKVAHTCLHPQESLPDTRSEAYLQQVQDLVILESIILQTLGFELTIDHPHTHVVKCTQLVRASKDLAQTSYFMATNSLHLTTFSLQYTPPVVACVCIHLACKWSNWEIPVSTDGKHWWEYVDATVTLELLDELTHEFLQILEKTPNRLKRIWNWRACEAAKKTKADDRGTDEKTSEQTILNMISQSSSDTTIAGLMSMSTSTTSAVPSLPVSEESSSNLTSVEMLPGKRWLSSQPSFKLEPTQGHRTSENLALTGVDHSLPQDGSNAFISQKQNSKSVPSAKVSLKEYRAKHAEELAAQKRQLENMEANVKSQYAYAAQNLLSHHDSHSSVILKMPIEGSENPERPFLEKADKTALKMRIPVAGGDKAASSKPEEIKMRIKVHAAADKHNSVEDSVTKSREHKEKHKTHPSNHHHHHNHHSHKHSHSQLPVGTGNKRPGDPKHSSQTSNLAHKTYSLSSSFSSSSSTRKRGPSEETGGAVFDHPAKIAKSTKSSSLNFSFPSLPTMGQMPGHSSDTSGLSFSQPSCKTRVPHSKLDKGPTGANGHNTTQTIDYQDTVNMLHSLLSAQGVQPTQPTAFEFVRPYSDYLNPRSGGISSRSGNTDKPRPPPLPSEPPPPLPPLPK
Outline: as §5

[4] = target: CDK12 (aa686-1082)/Cyclin K (Homo sapiens (Human), UniProt Q9NYV4); experiment: as above; assay type: biochemical; conditions: 2 mM ATP; read-out: CDK12 kinase IC50
Sequence of CDK12 (aa686-1082)/Cyclin K (Q9NYV4 686-1082): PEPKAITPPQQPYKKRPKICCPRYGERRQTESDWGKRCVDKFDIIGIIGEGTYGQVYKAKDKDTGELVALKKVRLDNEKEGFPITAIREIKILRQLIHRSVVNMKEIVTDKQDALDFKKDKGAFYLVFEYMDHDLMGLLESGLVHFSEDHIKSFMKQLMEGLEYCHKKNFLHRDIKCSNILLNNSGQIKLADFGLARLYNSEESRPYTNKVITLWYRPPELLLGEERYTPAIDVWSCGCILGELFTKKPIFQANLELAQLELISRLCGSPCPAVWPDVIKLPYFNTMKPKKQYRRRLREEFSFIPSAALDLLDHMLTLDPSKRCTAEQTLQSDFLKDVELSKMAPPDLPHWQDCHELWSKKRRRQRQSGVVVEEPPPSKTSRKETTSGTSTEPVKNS
Sequence of CDK12 (aa686-1082)/Cyclin K (O75909 whole entry partner, the tested form may be a part): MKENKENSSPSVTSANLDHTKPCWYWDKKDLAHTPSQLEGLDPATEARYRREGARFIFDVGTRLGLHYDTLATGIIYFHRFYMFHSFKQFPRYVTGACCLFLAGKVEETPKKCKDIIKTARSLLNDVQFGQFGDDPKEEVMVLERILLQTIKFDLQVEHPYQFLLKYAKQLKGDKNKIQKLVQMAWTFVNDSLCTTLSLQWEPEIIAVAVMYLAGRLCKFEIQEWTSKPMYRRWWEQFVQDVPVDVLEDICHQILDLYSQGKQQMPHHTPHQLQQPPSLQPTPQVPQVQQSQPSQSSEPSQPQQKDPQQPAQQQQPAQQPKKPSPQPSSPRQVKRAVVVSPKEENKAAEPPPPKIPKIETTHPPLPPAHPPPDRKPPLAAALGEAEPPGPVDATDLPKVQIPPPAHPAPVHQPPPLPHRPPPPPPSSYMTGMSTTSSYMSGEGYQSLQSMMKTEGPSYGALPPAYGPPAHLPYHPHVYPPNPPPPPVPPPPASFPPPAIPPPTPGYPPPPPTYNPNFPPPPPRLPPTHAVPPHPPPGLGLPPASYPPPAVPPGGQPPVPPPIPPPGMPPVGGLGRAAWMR
Outline: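 Mobility shift kinase assay on CDK9/Cyclin T1 and CDK12 (aa686-1082)/Cyclin K. Ten-point 3-fold dilution series started from a 0.5 mM intermediate solution in DMSO, with compound–enzyme pre-incubation of 0 or 60 min, in duplicate. Staurosporine served as positive control.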

[5] = tested on: breast cancer cells MDA-MB 231; experiment: Cell anti-proliferation experiment, MTT (Table 2); assay type: cell-based; conditions: Homo sapiens, MDA-MB-231, 72 h, incubate 3 days
Description: as §1, §2, §3, §4

[6] = tested on: breast cancer cells MDA-MB453; experiment: Cell anti-proliferation experiment, MTT (Table 2); assay type: cell-based; conditions: Homo sapiens, MDA-MB-453, 72 h, incubate 3 days
Description: as §1, §2, §3, §4

[7] = target: T1, CDK7/Cyclin H/MAT1 kinase; experiment: Enzyme activity test, mobility shift assay (Table 3); assay type: biochemical; conditions: 2 mM ATP, pre-incubated 0 and 60 minutes
Procedure: IC50 values of the compounds for CDK7 kinase were detected in Wuxi Biortus Biosciences Co. Ltd.
The compound powder was dissolved in 100% DMSO to prepare a 10 mM storage solution. The storage solution was further diluted to 0.5 mM as the initial concentration, and continuously diluted 3 times to obtain 10 compound solutions with different concentrations. The compound and enzyme were pre-incubated for 0 minutes and 60 minutes, respectively, using duplicate detection.
was used as a positive control, using Mobility shift say method, to detect CDK kinase (such as CDK7, CDK9, CDK12 and CDK2) activity of the compound.

T1 sequence (P50613 whole entry): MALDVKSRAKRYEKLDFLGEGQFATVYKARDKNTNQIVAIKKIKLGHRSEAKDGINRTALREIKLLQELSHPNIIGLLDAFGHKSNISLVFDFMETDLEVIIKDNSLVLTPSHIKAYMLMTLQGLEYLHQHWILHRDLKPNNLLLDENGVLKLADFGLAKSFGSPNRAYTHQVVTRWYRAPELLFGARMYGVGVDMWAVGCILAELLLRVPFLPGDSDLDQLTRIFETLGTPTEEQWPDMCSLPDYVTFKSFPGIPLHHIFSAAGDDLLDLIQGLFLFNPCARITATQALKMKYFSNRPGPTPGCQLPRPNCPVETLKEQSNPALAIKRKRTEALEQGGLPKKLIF
T1 sequence (P51946 whole entry partner): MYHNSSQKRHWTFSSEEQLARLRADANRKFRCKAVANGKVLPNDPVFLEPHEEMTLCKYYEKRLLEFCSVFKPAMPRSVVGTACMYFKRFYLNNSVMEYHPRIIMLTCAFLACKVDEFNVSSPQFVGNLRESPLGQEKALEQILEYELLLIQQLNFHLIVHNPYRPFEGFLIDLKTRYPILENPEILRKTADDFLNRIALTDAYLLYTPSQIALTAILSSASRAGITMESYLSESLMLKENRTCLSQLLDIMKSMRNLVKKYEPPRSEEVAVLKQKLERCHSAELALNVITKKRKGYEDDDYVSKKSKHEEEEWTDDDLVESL
T1 sequence (P51948 whole entry partner): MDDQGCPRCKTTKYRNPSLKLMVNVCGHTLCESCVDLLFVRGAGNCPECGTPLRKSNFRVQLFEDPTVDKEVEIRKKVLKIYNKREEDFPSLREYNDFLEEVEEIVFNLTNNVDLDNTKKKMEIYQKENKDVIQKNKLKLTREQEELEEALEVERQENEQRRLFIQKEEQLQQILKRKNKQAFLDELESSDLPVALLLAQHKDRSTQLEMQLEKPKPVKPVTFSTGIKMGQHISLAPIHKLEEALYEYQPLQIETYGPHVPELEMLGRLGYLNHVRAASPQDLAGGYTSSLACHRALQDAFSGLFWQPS

IC50 [1] | IC50 [2] | IC50 [3] | IC50 (CDK2/Cyclin El) | IC50 (CDK9/Cyclin Tl) | IC50 [4] | IC50 [5] | IC50 [6] | IC50 [7] | SMILES
< 0.05 µM | 53.4 nM | 1.54 nM |  |  |  |  |  |  | COC(=O)Nc1ccc2c(-c3nc(N[C@H]4CCCNC4)ncc3C(F)(F)F)c[nH]c2c1C(C)(F)F [Example T-99]
< 0.05 µM | 215 nM | 8.73 nM | > 0.5 µM | > 0.5 µM | > 0.5 µM | 573 nM | 120 nM |  | COC(=O)Nc1ccc2c(-c3nc(N[C@H]4CCCNC4)ncc3C(F)(F)F)c[nH]c2c1C(F)(F)F [Example T-34]
< 0.05 µM |  | 0.54 nM |  |  |  |  |  |  | COC(=O)Nc1ccc2c(-c3nc(N[C@H]4CCCNC4)ncc3C(F)(F)F)c[nH]c2c1OC(F)(F)F [Example T-122]
 |  |  |  |  |  |  |  | < 0.01 µM | CC1(C)CC[C@H](Nc2ncc(C(F)(F)F)c(-c3c[nH]c4c(S(=O)(=O)C5CCCC5)c(C#N)ccc34)n2)CN1 [Example 23]
< 0.05 µM | 161 nM | 13.5 nM | > 0.5 µM | > 0.5 µM | > 0.5 µM |  |  |  | COC(=O)Nc1ccc2c(-c3nc(N[C@H]4CCC5(CC5)NC4)ncc3C(F)(F)F)c[nH]c2c1OCC(F)(F)F [Example T-150]
 |  |  |  |  |  |  |  | < 0.01 µM | CC1(C)CC[C@H](Nc2ncc(C(F)(F)F)c(-c3c[nH]c4c(P(C)(C)=O)c(N5CCCCC5=O)ccc34)n2)CN1 [Example 02]
 |  |  |  |  |  |  |  | < 0.01 µM | COC(=O)N[C@H]1CCC[C@@H](Nc2ncc(C(F)(F)F)c(-c3c[nH]c4c(P(C)(C)=O)c(C#N)ccc34)n2)C1 [Example 66]
< 0.05 µM |  | 1.23 nM | > 0.5 µM | > 0.5 µM | > 0.5 µM |  |  |  | COC(=O)Nc1ccc2c(-c3nc(N[C@H]4CCC5(CC5)NC4)ncc3C(F)(F)F)c[nH]c2c1C(F)F [Example T-156]
 | 127 nM | 5.55 nM |  |  |  |  |  |  | COC(=O)Nc1ccc2c(-c3nc(N[C@H]4CCCNC4)ncc3C(F)(F)F)c[nH]c2c1C(C)=O [Example T-98]
< 0.05 µM | 55.5 nM | 1.26 nM | > 0.5 µM | > 0.5 µM | > 0.5 µM |  |  |  | COC(=O)Nc1ccc2c(-c3nc(N[C@H]4CCC5(CC5)NC4)ncc3C(F)(F)F)c[nH]c2c1Cl [Example T-81]
 |  |  |  |  |  |  |  | 0.01 to 0.5 µM | CC1(C)CC[C@H](Nc2nc(-c3c[nH]c4c(P(C)(C)=O)c(C#N)ccc34)c3ccccc3n2)CN1 [Example 24]
< 0.05 µM | 80.2 nM | 8.75 nM |  |  |  |  |  |  | COC(=O)Nc1ccc2c(-c3nc(N[C@H]4CCC(C)(C)NC4)ncc3C(F)(F)F)c[nH]c2c1OCC(F)(F)F [Example T-91]
< 0.05 µM | 161 nM | 4.61 nM | > 0.5 µM | > 0.5 µM | > 0.5 µM |  |  |  | COC(=O)Nc1ccc2c(-c3nc(N[C@H]4CCC5(CC5)NC4)ncc3C(F)(F)F)c[nH]c2c1C(C)=O [Example T-135]
 |  |  |  |  |  |  |  | 0.01 to 0.5 µM | Cc1cc(Nc2ncc(C(F)(F)F)c(-c3c[nH]c4cc(C#N)ccc34)n2)n[nH]1 [Example 12]
< 0.05 µM | 120 nM | 5.05 nM | > 0.5 µM | > 0.5 µM | > 0.5 µM |  |  |  | COC(=O)Nc1ccc2c(-c3nc(N[C@H]4CCC5(CC5)NC4)ncc3C(F)(F)F)c[nH]c2c1Br [Example T-142]
< 0.05 µM | 100 nM | 4.52 nM | > 0.5 µM | > 0.5 µM | > 0.5 µM |  |  |  | COC(=O)Nc1ccc2c(-c3nc(N[C@H]4CCC(C)(C)NC4)ncc3C(F)(F)F)c[nH]c2c1OC [Example T-132]
 |  |  |  |  |  |  |  | < 0.01 µM | Cc1cc(Nc2ncc(C(F)(F)F)c(-c3c[nH]c4c(P(C)(C)=O)c(C#N)ccc34)n2)n[nH]1 [Example 28]
< 0.05 µM | 9.08 nM | 8.68 nM | > 0.5 µM | > 0.5 µM | > 0.5 µM |  |  |  | COC(=O)Nc1ccc2c(-c3nc(N[C@H]4CCC5(CC5)NC4)ncc3C(F)(F)F)c[nH]c2c1C1CC1 [Example T-128]
